Reference: PubChem BioAssay (NCI)
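The compound was tested at five concentrations on cells cultured in 96-well plates, with a 48-hour exposure period. Here, GI50 denotes the concentration required for 50% inhibition of growth. TGI: concentration producing complete growth inhibition.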

Key:
Assay in all cases: growth of human tumour cells (NCI), 48 h
A549 NSCLC = system: A549 NSCLC
COLO 205 colon = system: COLO 205 colon
EKVX NSCLC = system: EKVX NSCLC
HCC-2998 colon = system: HCC-2998 colon
HCT-15 colon = system: HCT-15 colon
HOP-62 NSCLC = system: HOP-62 NSCLC
LOX IMVI melanoma = system: LOX IMVI melanoma
OVCAR-5 ovarian = system: OVCAR-5 ovarian
OVCAR-8 ovarian = system: OVCAR-8 ovarian
SK-MEL-2 melanoma = system: SK-MEL-2 melanoma

SMILES | GI50 (A549 NSCLC) [µM] | GI50 (COLO 205 colon) [µM] | TGI (EKVX NSCLC) [µM] | TGI (HCC-2998 colon) [µM] | GI50 (HCT-15 colon) [µM] | TGI (HOP-62 NSCLC) [µM] | TGI (LOX IMVI melanoma) [µM] | GI50 (OVCAR-5 ovarian) [µM] | GI50 (OVCAR-8 ovarian) [µM] | GI50 (SK-MEL-2 melanoma) [µM] | TGI (A549 NSCLC) [µM] | TGI (COLO 205 colon) [µM] | TGI (HCT-15 colon) [µM] | TGI (OVCAR-5 ovarian) [µM] | TGI (OVCAR-8 ovarian) [µM] | TGI (SK-MEL-2 melanoma) [µM] | GI50 (EKVX NSCLC) [µM]
C=C1CCCC(C)(C)[C@@H]1CC/C(C)=C/Cn1c2cccc(=O)c-2nc2ccccc21 | 20.9 | 23.8 | 11.4 | 4.53 | 4.34 | 9.37 | 2.45 | 27.1 | 4.28 | 6.62 | – | – | – | – | – | – | –
CC(C)(C)c1ccc(O)c(Br)c1 | – | – | > 100 | > 100 | – | > 100 | > 100 | – | – | – | > 100 | > 100 | > 100 | > 100 | > 100 | > 100 | –
COc1cccc(/C=N/[N-]C(N)=O)c1[O-].[Cu+2].[OH3+].c1cnc2c(c1)ccc1cccnc12 | – | – | 34.4 | 49.1 | – | 36 | 48.2 | – | – | – | 28.7 | 32.5 | > 100 | > 100 | 31.9 | 32.1 | –
O=c1oc2c(ccc3occc32)c(N2CCCCC2)c1-c1ccccc1 | – | – | > 100 | > 100 | – | > 100 | > 100 | – | – | – | > 100 | > 100 | > 100 | > 100 | > 100 | > 100 | –
Fc1cc(C2=C[C@H](c3ccc4c(c3)OCO4)NC(=S)N2)c(Cl)cc1Cl | – | – | > 100 | 75.4 | – | > 100 | > 100 | – | – | – | > 100 | 50.3 | > 100 | > 100 | > 100 | 62.7 | –
O=C(N/N=C\c1ccc([N+](=O)[O-])cc1)Nc1ccccc1 | – | – | – | – | – | > 100 | – | – | – | – | – | > 100 | > 100 | > 100 | > 100 | > 100 | –
CC(C)(C)OC(=O)N1C(C2=COc3ccccc3O2)=COc2cccnc21 | – | – | 4.03 | 3.16 | – | 3.5 | 3.36 | – | – | – | 4.38 | 3.64 | 3.46 | 3.4 | 4.06 | 3.96 | –
NC(N)=NS(=O)(=O)c1ccc(Nc2c3ccccc3nc3c(C(=O)N4CCN(CCO)CC4)ccc(Cl)c23)cc1 | – | – | – | > 100 | – | > 100 | – | – | – | – | > 100 | > 100 | > 100 | > 100 | > 100 | > 100 | –
Clc1ccc(NCc2nnc(COc3ccc(OCc4nnc(CNc5ccc(Cl)cc5)o4)c(Cl)c3)o2)cc1 | – | – | > 100 | > 100 | – | > 100 | > 100 | – | – | – | > 100 | 25.9 | > 100 | > 100 | > 100 | > 100 | –
O=C(CSc1nc2ccc(Cl)cc2c(=O)n1-c1ccccc1)N=Nc1c(O)[nH]c2ccc(F)cc12 | – | – | 14.4 | 8.73 | – | 4.19 | 3.22 | – | – | – | 5.42 | 4.81 | 3.45 | 9.01 | 3.33 | 5.3 | –
COc1cc(S(=O)(=O)N/N=C/C=C/c2ccccc2)c(OC)cc1NC(C)=O | – | – | > 100 | – | – | > 100 | > 100 | – | – | – | > 100 | 45.8 | > 100 | > 100 | > 100 | > 100 | –
COC(=O)c1c(O)ccc2c1c1c(n2Cc2ccccn2)C(=O)c2ccccc2C1 | – | – | – | – | – | > 100 | > 100 | – | – | – | > 100 | 28.5 | > 100 | > 100 | > 100 | > 100 | –
Cc1cc(N2CCOCC2)nc(N(CCCNc2ccnc3cc(Cl)ccc23)Cc2ccc3c(c2)OCO3)n1 | 1.61 | – | 5.55 | – | – | – | – | – | 1.85 | 1.26 | 3.12 | – | – | – | 4.09 | 2.66 | 2.29
O=CC(O)C(O)C(O)COc1cc(CO)cc2c1C(=O)c1ccccc1C2=O (configuration not stated) | – | – | > 100 | > 100 | – | > 100 | > 100 | – | – | – | > 100 | > 100 | > 100 | > 100 | > 100 | > 100 | –
CC(Br)C(=O)c1ccc2cc(Br)c3ccccc3c2c1 (configuration not stated) | – | – | 28.9 | 29.6 | – | 32.4 | 20.4 | – | – | – | 39.1 | – | 31 | 31.4 | 27.5 | 26.5 | –
CC(C)=CCC/C(C)=C/CC/C(C)=C/[C@@H]1[C@@H](CO)[C@]1(C)CC/C=C(\C)CCC=C(C)C | – | – | 48.2 | – | – | > 100 | 23.8 | – | – | – | > 100 | > 100 | > 100 | > 100 | 32.7 | > 100 | –
